Data as given in PubChem BioAssay AID330 (DTP/NCI, 2004).
“And” between values parts separate entries of the source, which are not always exact repeats. Equal entries are not always repeated. Toxic doses and inconclusive results are not listed. Rule for the calls: active = survival T/C of 150% or more; inactive = T/C below 125% in these data.

Tested on: P388 leukemia ip, CD2F1 mice, survival T/C
Test: NCI In Vivo Anticancer Drug Screen. Data for tumor model P388 Leukemia (intraperitoneal) in CD2F1 (CDF1) mice
Settings: endpoint: median survival time, higher = longer survival
Summary of the method: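 Mice carrying the transplanted tumor received test compound or vehicle. Survival was recorded in each group, and the value is the treated-group measurement divided by that of the vehicle-treated control group.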

[1] = dose: 50.0 mg/kg/injection, schedule: Q01DX005 (ip), vehicle: saline with Tween-80
[2] = dose: 100.0 mg/kg/injection, schedule: Q01DX005 (ip), vehicle: saline with Tween-80
[3] = dose: 25.0 mg/kg/injection, schedule: Q01DX009 (ip), vehicle: saline with Tween-80
[4] = dose: 50.0 mg/kg/injection, schedule: Q01DX009 (ip), vehicle: saline with Tween-80
[5] = dose: 100.0 mg/kg/injection, schedule: Q01DX009 (ip), vehicle: saline with Tween-80
[6] = dose: 100.0 mg/kg/injection, schedule: Q01DX009 (ip), vehicle: saline
[7] = dose: 200.0 mg/kg/injection, schedule: Q01DX009 (ip), vehicle: saline with Tween-80
[8] = dose: 200.0 mg/kg/injection, schedule: Q01DX009 (ip), vehicle: saline
[9] = dose: 400.0 mg/kg/injection, schedule: Q01DX009 (ip), vehicle: saline
[10] = dose: 60.0 mg/kg/injection, schedule: Q01DX005 (ip), vehicle: saline with Tween-80
[11] = dose: 120.0 mg/kg/injection, schedule: Q01DX005 (ip), vehicle: saline with Tween-80
[12] = dose: 240.0 mg/kg/injection, schedule: Q01DX005 (ip), vehicle: saline with Tween-80
[13] = dose: 12.5 mg/kg/injection, schedule: Q01DX009 (ip), vehicle: saline with Tween-80

Measured: T/C

CCCCCCCCCCSc1n[nH]c(=S)s1
inactive: [1] 100 % of control | [2] 100 % of control | dose: 200.0 mg/kg/injection, schedule: Q01DX005 (ip), vehicle: saline with Tween-80 105 % of control

Oc1cccnc1Cl
inactive: [3] 110 % of control | [4] 114 % of control | [5] 114 % of control | [6] 102 % of control | [7] 119 % of control | [8] 101 % of control | [9] 108 % of control

CCOC(=O)c1cn(C)c2c1C(=O)C(C(=O)OCC)CCN2C(=O)OCC (configuration not stated)
inactive: [4] 99 % of control | [5] 105 % of control | [7] 107 % of control

COc1cc2c(cc1C(CC(C)O)c1cc(OC)c(OC)c(OC)c1)OCO2 (configuration not stated)
inactive: [10] 100 % of control | [11] 90 % of control | [12] 98 % of control

COC(=O)C1CC(=O)N(C)c2sc(C)c(C)c2C1=O (configuration not stated)
inactive: [3] 103 % of control | [4] 93 % of control | [5] 94 % of control | dose: 100.0 mg/kg/injection, schedule: Q04DX003 (ip), vehicle: saline with Tween-80 97 % of control | [7] 94 % of control | dose: 200.0 mg/kg/injection, schedule: Q04DX003 (ip), vehicle: saline with Tween-80 93 % of control

O=C(O)C1CCC(=O)N1Cc1c[nH]c2ccccc12 (configuration not stated)
inactive: [10] 98 % of control | [11] 94 % of control | [12] 97 % of control

CC(C)CNC(=O)CNC(=O)C=[N+]=[N-]
inactive: [4] 104 % of control | [5] 104 % of control | [7] 104 % of control

CC1(C)S[C@@H]2C(Cl)=C(Cl)C(=O)N2[C@H]1C(=O)O
inactive: [1] 91 % of control | [2] 91 % of control

C1CC[C@]2([C@]34CCCC[C@H]3O4)O[C@@H]2C1
inactive: dose: 60.0 mg/kg/injection, schedule: Q01DX005 (ip), vehicle: Klucel (hydroxypropylcellulose) (HPC) 99 % of control | dose: 120.0 mg/kg/injection, schedule: Q01DX005 (ip), vehicle: Klucel (hydroxypropylcellulose) (HPC) 100 % of control | dose: 240.0 mg/kg/injection, schedule: Q01DX005 (ip), vehicle: Klucel (hydroxypropylcellulose) (HPC) 104 % of control

Cl
inactive: dose: 6.25 mg/kg/injection, schedule: Q01DX009 (ip), vehicle: saline with Tween-80 95 % of control | dose: 0.01 % in 0.5 ml injection vol, schedule: Q01DX009 (ip), vehicle: water 100 % of control | [13] 100 % of control | dose: 0.02 % in 0.5 ml injection vol, schedule: Q01DX009 (ip), vehicle: water 101 % of control and 92 % of control | [3] 100 % of control | dose: 25.0 mg/kg/injection, schedule: Q01DX009 (ip), vehicle: saline 106 % of control | dose: 0.04 % in 0.5 ml injection vol, schedule: Q01DX009 (ip), vehicle: water 102 % of control and 108 % of control | dose: 50.0 mg/kg/injection, schedule: Q01DX009 (ip), vehicle: saline 104 % of control | dose: 50.0 mg/kg/injection, schedule: Q#A X018 (ip), vehicle: saline 99 % of control | dose: 0.08 % in 0.5 ml injection vol, schedule: Q01DX009 (ip), vehicle: water 100 % of control and 88 % of control | [6] 101 % of control | dose: 100.0 mg/kg/injection, schedule: Q#A X018 (ip), vehicle: saline 105 % of control | dose: 0.16 % in 0.5 ml injection vol, schedule: Q01DX009 (ip), vehicle: water 88 % of control | [8] 110 % of control and 97 % of control | dose: 200.0 mg/kg/injection, schedule: Q#A X018 (ip), vehicle: saline 97 % of control | dose: 0.31 % in 0.5 ml injection vol, schedule: Q01DX009 (ip), vehicle: water 88 % of control | [9] 95 % of control | dose: 400.0 mg/kg/injection, schedule: Q#A X018 (ip), vehicle: saline 87 % of control | dose: 800.0 mg/kg/injection, schedule: Q01DX009 (ip), vehicle: saline 103 % of control

OCCN(CCO)c1ccc2ccc(N(CCO)CCO)nc2n1
inactive: dose: 50.0 mg/kg/injection, schedule: Q04DX003 (ip), vehicle: Klucel (hydroxypropylcellulose) (HPC) 103 % of control | dose: 100.0 mg/kg/injection, schedule: Q04DX003 (ip), vehicle: Klucel (hydroxypropylcellulose) (HPC) 103 % of control | dose: 200.0 mg/kg/injection, schedule: Q04DX003 (ip), vehicle: Klucel (hydroxypropylcellulose) (HPC) 100 % of control

CCCCNC1CC(OC2CC(O)(C(C)=O)Cc3c(O)c4c(c(O)c32)C(=O)c2c(OC)cccc2C4=O)OC(C)C1O (configuration not stated)
inactive: dose: 2.0 mg/kg/injection, schedule: Q01DX009 (ip), vehicle: water 102 % of control | dose: 4.0 mg/kg/injection, schedule: Q01DX009 (ip), vehicle: water 100 % of control | dose: 8.0 mg/kg/injection, schedule: Q01DX009 (ip), vehicle: water 118 % of control | dose: 16.0 mg/kg/injection, schedule: Q01DX009 (ip), vehicle: water 118 % of control

COc1cccc2c1C(=O)c1c(O)c3c(c(O)c1C2=O)C[C@@](O)(C(C)=O)[C@@H](OC)[C@@H]3OC1CC(N)C(O)C(C)O1 (some centres not stated)
inactive: dose: 0.6 mg/kg/injection, schedule: Q04DX003 (ip), vehicle: water 103 % of control | dose: 1.2 mg/kg/injection, schedule: Q04DX003 (ip), vehicle: water 122 % of control | dose: 2.4 mg/kg/injection, schedule: Q04DX003 (ip), vehicle: water 108 % of control | dose: 2.5 mg/kg/injection, schedule: Q04DX003 (ip), vehicle: water 108 % of control | dose: 4.8 mg/kg/injection, schedule: Q04DX003 (ip), vehicle: water 123 % of control | dose: 5.0 mg/kg/injection, schedule: Q04DX003 (ip), vehicle: water 108 % of control

O=C(NC(=S)c1cccc2ccccc12)Nc1ccc(Cl)c(Cl)c1
inactive: [13] 89 % of control | [3] 87 % of control | [4] 103 % of control

CNC(=O)OCc1c(C)oc(-c2ccccc2)c1COC(=O)NC
inactive: dose: 12.5 mg/kg/injection, schedule: Q01DX009 (ip), vehicle: distilled water + Tween-80 93 % of control | dose: 25.0 mg/kg/injection, schedule: Q01DX009 (ip), vehicle: distilled water + Tween-80 90 % of control | dose: 50.0 mg/kg/injection, schedule: Q01DX009 (ip), vehicle: distilled water + Tween-80 100 % of control

CC1=C(O)CC(/C(C)=C\Cl)OC1=O (configuration not stated)
inactive: dose: 100.0 mg/kg/injection, schedule: Q04DX002 (ip), vehicle: Klucel (hydroxypropylcellulose) (HPC) 101 % of control | dose: 200.0 mg/kg/injection, schedule: Q04DX002 (ip), vehicle: Klucel (hydroxypropylcellulose) (HPC) 98 % of control | dose: 400.0 mg/kg/injection, schedule: Q04DX002 (ip), vehicle: Klucel (hydroxypropylcellulose) (HPC) 104 % of control

Cc1cccc(NC(=O)Nc2ccccc2Cl)n1
inactive: dose: 50.0 mg/kg/injection, schedule: Q01DX009 (ip), vehicle: Klucel (hydroxypropylcellulose) (HPC) 102 % of control | dose: 100.0 mg/kg/injection, schedule: Q01DX009 (ip), vehicle: Klucel (hydroxypropylcellulose) (HPC) 96 % of control | dose: 200.0 mg/kg/injection, schedule: Q01DX009 (ip), vehicle: Klucel (hydroxypropylcellulose) (HPC) 93 % of control
